According to patent US20260115161A1, “2-HYDROXY-OCTADECENE-9-CIS-OATE FOR USE IN THE TREATMENT OF ONCOLOGICAL PATHOLOGIES AND NEUROPATHIC PAIN” (Laminar Pharmaceuticals S.A., priority 2023, published 2026):

Key:
[1] = system: U118 Glioblastoma; assay: Cell line assay, HOCOS combinations, U118; type: cell-based; conditions: Homo sapiens; U118, compound alone
Method: (§1) To study the possible use of HOCOS in combinatorial therapies, human glioblastoma cells of lines U118, SNB19, SF268, human mesothelioma cells NCI-H2021 and pancreatic cancer cells BxPC-3 (pancreatic adenocarcinoma) and MIAPaCa-2 ([…]) were cultured in the absence or presence of different chemotherapeutic agents and combinations of HOCOS with said compounds.

[2] = system: neuropathic pain due to spinal cord injury; conditions: Cardenas et al., cited from earlier work
[3] = system: SNB19 Glioblastoma; assay: cells; conditions: Homo sapiens, SNB-19
Method: as §1

[4] = system: A549 Lung; assay: Cell line assay, HOCOS combinations, A549; type: cell-based; conditions: Homo sapiens; A549, compound alone
[5] = system: BxPC-3 Pancreas; assay: Cell line assay, HOCOS combinations, BxPC-3; type: cell-based; conditions: Homo sapiens; BxPC-3, compound alone
Method: as §1

[6] = system: NCI-H2021 Mesothelioma; assay: Cell line assay, HOCOS combinations, NCI-H2021; type: cell-based, human; conditions: NCI-H2021, compound alone
Method: as §1

CCc1c2c(nc3ccc(OC(=O)N4CCC(N5CCCCC5)CC4)cc13)-c1cc3c(c(=O)n1C2)COC(=O)[C@]3(O)CC [Irinotecan]
IC50 [1]: 15 µM

CC(C)C[C@H](CN)CC(=O)O [pregabalin]
percentage of patients responding, pregabalin group ([2]; 33% in the placebo group): 48% | mean reduction of neuropathic pain [2]: 1.2 points on the VAS scale | patients responding to treatment [2]: approximately 50% | difference between pregabalin and placebo groups ([2]; VAS scale): 0.82 points

Cc1ncc(C[n+]2csc(CCO)c2C)c(N)n1 [Thiamine]
IC50 [3]: 15400 µM

C#Cc1cccc(Nc2ncnc3cc(OCCOC)c(OCCOC)cc23)c1 [Erlotinib]
IC50 [4]: 16 µM

Nc1ccn([C@@H]2O[C@H](CO)[C@@H](O)C2(F)F)c(=O)n1 [Gemcitabine]
IC50 [5]: 0.0078 µM

N.N.[Cl][Pt][Cl] [Cisplatin]
IC50 [6]: 16.4 µM
